In patent publication US11623919B2, “Heterocyclic P2X7 antagonists” (AXXAM S.P.A., priority 2017, dated 2023) one finds IC50 data, which are given here for 17 compounds.

Bounds are passed on as bounds.

What all share (assay): Screen Quest Fluo-8 No Wash Calcium Assay (Bz-ATP evoked Ca2+ influx, FLIPR)
Holding throughout (assay type): cell-based

Test [1] deals with T1, P2X7 receptor (Mus musculus, UniProt Q9Z1M0).
T1 construct: mP2X7 (IC50; nM); other: mP2X7; HEK-293 cells stably transfected with P2X7 receptor, Bz-ATP at EC80, Fluo-8 NW; potency
T1 sequence (Q9Z1M0 1-595): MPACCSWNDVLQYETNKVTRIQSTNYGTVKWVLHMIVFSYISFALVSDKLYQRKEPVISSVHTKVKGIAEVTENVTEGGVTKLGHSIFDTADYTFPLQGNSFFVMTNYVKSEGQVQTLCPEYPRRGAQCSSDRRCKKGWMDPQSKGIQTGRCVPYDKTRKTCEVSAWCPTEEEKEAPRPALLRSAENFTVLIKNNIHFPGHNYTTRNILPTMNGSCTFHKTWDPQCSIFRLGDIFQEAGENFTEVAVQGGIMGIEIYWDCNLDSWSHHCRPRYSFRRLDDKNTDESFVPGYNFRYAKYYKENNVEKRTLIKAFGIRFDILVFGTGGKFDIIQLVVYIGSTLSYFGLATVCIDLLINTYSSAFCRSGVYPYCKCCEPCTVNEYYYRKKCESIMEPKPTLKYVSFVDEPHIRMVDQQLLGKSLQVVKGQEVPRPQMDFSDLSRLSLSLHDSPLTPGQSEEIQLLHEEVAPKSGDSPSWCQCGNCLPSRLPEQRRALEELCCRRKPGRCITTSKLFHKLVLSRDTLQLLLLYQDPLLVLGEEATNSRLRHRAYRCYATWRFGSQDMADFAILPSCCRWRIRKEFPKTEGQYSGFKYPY
To be noted: mP2X7; HEK-293 cells stably transfected with P2X7 receptor, Bz-ATP at EC80, Fluo-8 NW; potency ranges A-D. How it is done:
(§1) Extracellular binding of Bz-ATP to P2X7 receptor opens the channel and allows Ca2+ influx into the cells. […] Once inside the cell, the lipophilic blocking groups of Fluo-8 are cleaved by non-specific cell esterases, resulting in a negatively-charged fluorescent dye that stays inside cells. Its fluorescence increases upon binding to calcium.
(§2) HEK-293 cells stably transfected with P2X7 receptor were seeded overnight in growth medium at 10,000 to 20,000 cell/well in 384-well plate. 24 hours later, the medium was removed and the cells were pre-loaded at RT for 1 hour with 20 μL/w of Fluo-8 NW. Then 10 μL/w of tests compounds and reference antagonist A438079 at 3×-concentration were injected with the […] and the kinetic response over a period of five minutes was monitored. A second injection of 15 μL/w of 3× reference activator (Bz-ATP at EC80) was performed with the […] and the signal of the emitted fluorescence was recorded for additional three minutes. All the experiment was carried out in a Low Divalent Cation Assay Buffer (0.3 mM Ca^2+ and 0 mM Mg^2+). The effect of the test compounds was measured as percent inhibition vs the reference antagonist and IC50 values were calculated accordingly.

Test [2] addresses T2, P2X7 receptor (Rattus norvegicus, UniProt Q64663).
T2 construct: rP2X7 (IC50; nM); other: rP2X7; HEK-293 cells stably transfected with P2X7 receptor, Bz-ATP at EC80, Fluo-8 NW; potency
T2 sequence (Q64663 1-595): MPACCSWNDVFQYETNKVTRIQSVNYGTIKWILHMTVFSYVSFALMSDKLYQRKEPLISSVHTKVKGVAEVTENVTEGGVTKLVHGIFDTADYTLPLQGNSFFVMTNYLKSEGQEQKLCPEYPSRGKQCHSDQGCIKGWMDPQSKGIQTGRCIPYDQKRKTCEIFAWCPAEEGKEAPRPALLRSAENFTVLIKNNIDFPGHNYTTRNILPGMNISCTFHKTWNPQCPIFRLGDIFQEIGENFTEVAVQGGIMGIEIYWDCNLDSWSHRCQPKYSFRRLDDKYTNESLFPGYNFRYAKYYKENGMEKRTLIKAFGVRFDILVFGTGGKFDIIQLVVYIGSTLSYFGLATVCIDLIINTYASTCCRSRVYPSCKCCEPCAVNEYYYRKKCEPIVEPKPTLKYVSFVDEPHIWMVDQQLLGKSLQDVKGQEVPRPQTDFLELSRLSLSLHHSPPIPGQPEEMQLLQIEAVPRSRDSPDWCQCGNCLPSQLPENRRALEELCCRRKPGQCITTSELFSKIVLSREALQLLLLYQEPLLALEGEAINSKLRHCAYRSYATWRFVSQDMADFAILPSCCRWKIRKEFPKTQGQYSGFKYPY
The settings on record: rP2X7; HEK-293 cells stably transfected with P2X7 receptor, Bz-ATP at EC80, Fluo-8 NW; potency ranges A-D. How it is done: as §1, §2

The target of test [3] is T3, P2X7 receptor (Homo sapiens, UniProt Q99572).
T3 sequence (Q99572 1-595): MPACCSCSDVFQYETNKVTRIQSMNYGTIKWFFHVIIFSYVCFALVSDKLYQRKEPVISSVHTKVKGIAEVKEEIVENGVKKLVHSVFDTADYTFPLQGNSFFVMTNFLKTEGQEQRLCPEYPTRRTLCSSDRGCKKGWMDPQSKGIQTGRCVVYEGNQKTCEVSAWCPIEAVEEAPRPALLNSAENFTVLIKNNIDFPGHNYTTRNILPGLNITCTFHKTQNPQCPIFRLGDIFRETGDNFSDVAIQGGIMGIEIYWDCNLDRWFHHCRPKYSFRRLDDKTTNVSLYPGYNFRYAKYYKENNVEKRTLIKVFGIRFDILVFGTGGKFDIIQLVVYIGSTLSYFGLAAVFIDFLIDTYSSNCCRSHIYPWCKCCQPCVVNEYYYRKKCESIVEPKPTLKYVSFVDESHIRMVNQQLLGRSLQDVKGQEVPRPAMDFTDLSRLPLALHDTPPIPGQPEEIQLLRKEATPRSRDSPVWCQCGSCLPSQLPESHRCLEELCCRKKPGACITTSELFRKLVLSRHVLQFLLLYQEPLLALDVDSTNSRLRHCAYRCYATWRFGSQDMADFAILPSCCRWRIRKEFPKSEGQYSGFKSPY
Details: hP2X7 (IC50; nM); other: hP2X7; HEK-293 cells stably transfected with P2X7 receptor, Bz-ATP at EC80, Fluo-8 NW; potency. The settings on record: hP2X7; HEK-293 cells stably transfected with P2X7 receptor, Bz-ATP at EC80, Fluo-8 NW; potency ranges A-D. As for the experimental part:
as §1, §2

The term IC50 denotes the concentration needed to halve the response being measured. On to `O=c1onc(Cc2c(F)cccc2Cl)n1Cc1c(F)cccc1Cl` [Example 18, bis[(2-chloro-6-fluorophenyl)methyl]-4,5-dihydro-1,2,4-oxadiazol-5-one], for which the IC50 in test [1], in test [2] and in test [3] was 1000 to 10000 nM throughout.
As for `O=c1onc(Cc2ccccc2F)n1Cc1c(F)cccc1Cl` [Example 19, 4-[(2-chloro-6-fluorophenyl)methyl]-3-[(2-fluorophenyl)methyl]-4,5-dihydro-1,2,4-oxadiazol-5-one], the values for the IC50 in test [1], in test [2] and in test [3] were over 10000 nM, 1000 to 10000 nM and 1000 to 10000 nM, respectively.
On to `O=c1onc(Cc2ccccc2Cl)n1Cc1c(F)cccc1Cl` [Example 20, 4-[(2-chloro-6-fluorophenyl)methyl]-3-[(2-chlorophenyl)methyl]-4,5-dihydro-1,2,4-oxadiazol-5-one], for which the IC50 in test [1], in test [2] and in test [3] was 1000 to 10000 nM throughout.
Regarding `O=c1onc(Cc2c(F)cccc2Cl)n1Cc1ccccc1` [Example 21, 4-benzyl-3-[(2-chloro-6-fluorophenyl)methyl]-4,5-dihydro-1,2,4-oxadiazol-5-one], the IC50 in test [1] fell in the range of 1000 to 10000 nM; in test [2], 1000 to 10000 nM; in test [3], 200 to 1000 nM.
As for `O=c1onc(Cc2c(F)cccc2Cl)n1Cc1ccccc1Cl` [Example 22, 3-[(2-chloro-6-fluorophenyl)methyl]-4-[(2-chlorophenyl)methyl]-4,5-dihydro-1,2,4-oxadiazol-5-one], the IC50 in test [1], in test [2] and in test [3] was 1000 to 10000 nM each time.
As to `O=c1onc(Cc2c(F)cccc2Cl)n1Cc1ccccc1C(F)(F)F` [Example 23, 3-[(2-chloro-6-fluorophenyl)methyl]-4-{[2-(trifluoromethyl)phenyl]methyl}-4,5-dihydro-1,2,4-oxadiazol-5-one], the figures for the IC50 in test [1], in test [2] and in test [3] were over 10000 nM, 1000 to 10000 nM and 1000 to 10000 nM, respectively.
Turning to `Cc1ncccc1Cn1c(Cc2c(F)cccc2Cl)noc1=O` [Example 24, 3-[(2-chloro-6-fluorophenyl)methyl]-4-[(2-methylpyridin-3-yl)methyl]-4,5-dihydro-1,2,4-oxadiazol-5-one], the IC50 in test [1] is 1000 to 10000 nM; in test [2] it was over 10000 nM; in test [3], over 10000 nM.
Take `Cc1ccccc1Cn1c(Cc2c(F)cccc2Cl)noc1=O` [Example 27, 3-[(2-chloro-6-fluorophenyl)methyl]-4-[(2-methylphenyl)methyl]-4,5-dihydro-1,2,4-oxadiazol-5-one]: the IC50 in test [1], in test [2] and in test [3] was 1000 to 10000 nM in each case.
Turning to `COc1ccccc1Cn1c(Cc2c(F)cccc2Cl)noc1=O` [Example 28, 3-[(2-chloro-6-fluorophenyl)methyl]-4-[(2-methoxyphenyl)methyl]-4,5-dihydro-1,2,4-oxadiazol-5-one], the IC50 in test [1] was 1000 to 10000 nM; in test [2], over 10000 nM; in test [3] it was 1000 to 10000 nM.
On to `O=c1onc(Cc2c(F)cccc2Cl)n1Cc1cccc2ccccc12` [Example 29, 3-[(2-chloro-6-fluorophenyl)methyl]-4-(naphthalen-1-ylmethyl)-4,5-dihydro-1,2,4-oxadiazol-5-one], for which the values for the IC50 in test [1], in test [2] and in test [3] were 1000 to 10000 nM, over 10000 nM and 1000 to 10000 nM, respectively.
In the case of `O=c1onc(Cc2c(F)cccc2Cl)n1Cc1cccc2ncccc12` [Example 30, 3-[(2-chloro-6-fluorophenyl)methyl]-4-(quinolin-5-ylmethyl)-4,5-dihydro-1,2,4-oxadiazol-5-one], the IC50 in test [1], in test [2] and in test [3] was 1000 to 10000 nM throughout.
Turning to `Cc1ncsc1Cn1c(Cc2c(F)cccc2Cl)noc1=O` [Example 31, 3-[(2-chloro-6-fluorophenyl)methyl]-4-[(4-methyl-1,3-thiazol-5-yl)methyl]-4,5-dihydro-1,2,4-oxadiazol-5-one], the values for the IC50 in test [1], in test [2] and in test [3] were over 10000 nM, over 10000 nM and 1000 to 10000 nM, respectively.
As to `O=c1onc(Cc2c(F)cccc2Cl)n1Cc1ncco1` [Example 32, 3-[(2-chloro-6-fluorophenyl)methyl]-4-(1,3-oxazol-2-ylmethyl)-4,5-dihydro-1,2,4-oxadiazol-5-one], the half-maximal inhibitory concentration (IC50) in test [1], in test [2] and in test [3] was over 10000 nM in each case.
Regarding `O=c1onc(Cc2c(F)cccc2Cl)n1Cc1cncs1` [Example 33, 3-[(2-chloro-6-fluorophenyl)methyl]-4-(1,3-thiazol-5-ylmethyl)-4,5-dihydro-1,2,4-oxadiazol-5-one], the IC50 in test [1], in test [2] and in test [3] was over 10000 nM in each case.
Regarding `O=c1onc(Cc2c(F)cccc2Cl)n1Cc1nccs1` [Example 34, 3-[(2-chloro-6-fluorophenyl)methyl]-4-(1,3-thiazol-2-ylmethyl)-4,5-dihydro-1,2,4-oxadiazol-5-one], the IC50 in test [1], in test [2] and in test [3] was over 10000 nM in each case.
Take `O=c1onc(Cc2c(F)cccc2Cl)n1Cn1ccc(C(F)(F)F)n1` [Example 35, 3-[(2-chloro-6-fluorophenyl)methyl]-4-{[3-(trifluoromethyl)-1H-pyrazol-1-yl]methyl}-4,5-dihydro-1,2,4-oxadiazol-5-one]: the IC50 in test [1], in test [2] and in test [3] was 1000 to 10000 nM each time.
In the case of `Cc1noc(C)c1Cn1c(Cc2c(F)cccc2Cl)noc1=O` [Example 36, 3-[(2-chloro-6-fluorophenyl)methyl]-4-[(dimethyl-1,2-oxazol-4-yl)methyl]-4,5-dihydro-1,2,4-oxadiazol-5-one], the IC50 is over 10000 nM in test [1], over 10000 nM in test [2] and 1000 to 10000 nM in test [3].
